This passage reports cell viability and apoptosis induction results from patent US20240091145A1, “DRY MUCO-ADHESIVE COMPOSITIONS AND USE THEREOF” (TECHNION RESEARCH & DEVELOPMENT FOUNDATION LIMITED, priority 2021, published 2024).

Data set [1] deals with SCC7 cell line. The data set can be described thus: Cell viability assay (MTT). In kind it is cell-based, murine. The procedure: Murine squamous cell carcinoma cell line, SCC7 purchased from Prof. Reinhard Zeidler, at the German Research Center for Environmental Health in Munich, were cultured in DMEM containing 10% v/v FBS and (2 mM) L-glutamine, kept at a temperature of 37° C. and in humidified atmosphere containing 5% v/v CO2 and 95% v/v air. For maintain cell growth, cells were split every 2-3 days using […] trypsin solution for detaching.
Tablets (1×3 mm) containing alginate (0.8, 1.6 mg) and liposomes (0.8 mg) in the form of layered or homogenous, either empty or DOX loaded liposomes were prepared as described above. The final concentration of DOX in each tablet was (1.68 mg mL^−1). To examine the toxicity of the tablets containing the drug on SCC7 cell line, at first cells were seeded at a uniform density of 15,000 cells per well on 96 well plates in […] DMEM medium. On the day of the experiment, medium was replaced with fresh medium containing the tablets, free DOX and in some wells empty fresh medium to serve as control. Cells were incubated for 4, 8, 12, 24, 48 and 72 hr in humidified atmosphere at 37° C. Cells viability was measured using the MTT assay. The medium was removed and (100 μl) of MTT (1 mg mL^−1) in PBS^−1 were added to each well and incubated at 37° C. for 4 hr. […] The absorbance was measured at 570 nm and 690 nm for the background absorbance. […]

Data set [2] has as its system OSCC cell line (HSC-2). The note with it: in vitro; cited from earlier work.

As for `COc1cccc2c1C(=O)c1c(O)c3c(c(O)c1C2=O)C[C@@](O)(C(=O)CO)C[C@@H]3O[C@H]1C[C@H](N)[C@H](O)[C@H](C)O1` [free DOX, Doxorubicin], the cell viability in data set [1] (SCC7, long times) was 3-10%; in data set [1] (SCC7, short times) it was 28-40%. The apoptosis induction entry in data set [2] was “induce apoptosis through the activation of caspase-3, -8 and -9”.
